Reference: ChEMBL document CHEMBL5375989, “Pioneering 4,11-Dioxo-4,11-dihydro-1H-anthra[2,3-d]imidazol-3-ium Compounds as Promising Survivin Inhibitors by Targeting ILF3/NF110 for Cancer Therapy” (J Med Chem, 2023)
pIC50: −log10 of the molar value.

Key:
[1] = system: TE-1; assay: cells; conditions: Homo sapiens, TE-1, 48 h
Description: Antiproliferative activity against human TE-1 cells assessed as inhibition of cell growth measured after 48 hrs by MTT assay

[2] = (§1) Antiproliferative activity against mouse L929 cells assessed as inhibition of cell growth measured after 48 hrs by MTT assay; format: toxicity, cell-based; conditions: mouse, L929 cells
[3] = system: A549; assay: cells; conditions: Homo sapiens, A549, 48 h
Description: (§2) Antiproliferative activity against human A549 cells assessed as inhibition of cell growth measured after 48 hrs by MTT assay

[4] = system: 5637; assay: cells; conditions: Homo sapiens, 5637, 48 h
Description: Antiproliferative activity against human 5637 cells assessed as inhibition of cell growth measured after 48 hrs by MTT assay

[5] = Selectivity index, ratio of IC50 for mouse L929 cells to IC50 for human A549 cells; format: toxicity; conditions: for selectivity ratio: L929 cells and A549 cells, read-out: Ratio IC50
[6] = system: A549
Description: as §2

[7] = system: L929; assay: as §1; format: toxicity, cell-based; conditions: l929

| SMILES | pIC50 [1] | pIC50 [3] | pIC50 [4] | pIC50 [6] | IC50 at 48 h [2] | selectivity ratio [5] | pIC50 [7] | Ratio IC50 [5] |
| --- | --- | --- | --- | --- | --- | --- | --- | --- |
| Cc1n(Cc2ccccc2F)c2c([n+]1C)C(=O)c1cc3ccccc3cc1C2=O | 6.26 | 6.34 | 6.28 | – | 12.6 µM | – | – | – |
| CC(C)n1c[n+](C(C)C)c2c1C(=O)c1ccccc1C2=O | – | 6.20 | – | – | 18.6 µM | 29.5 | – | – |
| CCCn1c2c([n+](C)c1C)C(=O)c1cc3ccccc3cc1C2=O | 6.42 | 5.91 | 6.24 | – | 22.1 µM | – | – | – |
| CC(C)n1c[n+](C)c2c1C(=O)c1cc3ccccc3cc1C2=O | 6.38 | 6.35 | 6.12 | – | 84 µM | – | – | – |
| Cn1c2c([n+](C)c1-c1ccco1)C(=O)c1ccccc1C2=O | – | 6.17 | – | – | 7 µM | 10 | – | – |
| CCn1c2c([n+](CC)c1C)C(=O)c1cc3ccccc3cc1C2=O | 6.38 | 7.15 | 6.06 | – | 33.8 µM | – | – | – |
| CCc1n(C)c2c([n+]1C)C(=O)c1ccccc1C2=O | – | 6.80 | – | – | 5.6 µM | 35 | – | – |
| C#CCn1c2c([n+](C)c1C)C(=O)c1cc3ccccc3cc1C2=O | 6.41 | 6.60 | 5.77 | – | 23.8 µM | – | – | – |
| CCCCn1c[n+](CCCC)c2c1C(=O)c1ccccc1C2=O | – | 6.29 | – | – | 6 µM | 11.8 | – | – |
| CCCn1c[n+](CCC)c2c1C(=O)c1ccccc1C2=O | – | 6.19 | – | – | 9.8 µM | 15.1 | – | – |
| Cc1n(C)c2c([n+]1C)C(=O)c1cc3ccccc3cc1C2=O | 7.30 | 7.30 | 6.38 | – | 15.1 µM | 302 | – | – |
| Cn1c[n+](C)c2c1C(=O)c1ccccc1C2=O.[I-] | – | – | – | 7.52 | – | – | 5.45 | 117 |
| Cn1c[n+](C)c2c1C(=O)c1ccccc1C2=O.F[P-](F)(F)(F)(F)F | – | – | – | 6.77 | – | – | 5.74 | 10.6 |
| CS(=O)(=O)[O-].Cn1c[n+](C)c2c1C(=O)c1ccccc1C2=O | – | – | – | 6.40 | – | – | 6.15 | 1.8 |
| COCC[n+]1c2c(n(Cc3cnccn3)c1C)C(=O)c1cc3ccccc3cc1C2=O | 6.04 | 5.35 | 5.98 | – | 141 µM | – | – | – |
| CCn1c2c([n+](C)c1C)C(=O)c1cc3ccccc3cc1C2=O | 7.10 | 6.68 | 6.34 | – | 23.3 µM | – | – | – |
| CCCCn1c2c([n+](C)c1C)C(=O)c1cc3ccccc3cc1C2=O | 7.05 | 7.05 | 6.48 | – | 13.6 µM | – | – | – |
| CCC(C)Cn1c[n+](C)c2c1C(=O)c1cc3ccccc3cc1C2=O (stereo unspecified) | 6.15 | 5.08 | 5.82 | – | 83.9 µM | – | – | – |
| Cc1ccc(S(=O)(=O)[O-])cc1.Cn1c[n+](C)c2c1C(=O)c1ccccc1C2=O | – | – | – | 6.55 | – | – | 6.27 | 1.9 |
| Cc1n(CC(C)C)c2c([n+]1C)C(=O)c1cc3ccccc3cc1C2=O | 7.10 | 7.22 | 6.39 | – | 15.4 µM | – | – | – |
| CC(C)Cn1c[n+](C)c2c1C(=O)c1cc3ccccc3cc1C2=O | 6.11 | 5.73 | 6.12 | – | 87.4 µM | – | – | – |
| Cn1c2c([n+](C)c1C1CC1)C(=O)c1cc3ccccc3cc1C2=O | – | 7.10 | – | – | 15.4 µM | 171 | – | – |
| C[n+]1cn(Cc2ccc(F)cc2)c2c1C(=O)c1cc3ccccc3cc1C2=O | 6.89 | 6.15 | 6.28 | – | 41.1 µM | – | – | – |
| CCn1c[n+](CC)c2c1C(=O)c1cc3ccccc3cc1C2=O | 6.74 | 6.59 | 6.28 | – | 63.9 µM | – | – | – |
| CC(C)CCn1c[n+](C)c2c1C(=O)c1cc3ccccc3cc1C2=O | 6.04 | 5.03 | 5.75 | – | > 16.4 µM | – | – | – |
| O=C1c2ccccc2C(=O)c2c1n(Cc1ccccc1)c[n+]2Cc1ccccc1 | – | 6.09 | – | – | 39 µM | 47.6 | – | – |
| COc1ccc(Cn2c[n+](C)c3c2C(=O)c2cc4ccccc4cc2C3=O)cc1 | 7.10 | 6.07 | 6.10 | – | 64.4 µM | – | – | – |
| CCC(C)Cn1c2c([n+](C)c1C)C(=O)c1cc3ccccc3cc1C2=O (stereo unspecified) | 6.17 | 6.43 | 5.87 | – | 43.5 µM | – | – | – |

Further lines, with some results ahead:

| pIC50 [1] | pIC50 [3] | pIC50 [4] | pIC50 [6] | SMILES | IC50 at 48 h [2] | selectivity ratio [5] | pIC50 [7] | Ratio IC50 [5] |
| --- | --- | --- | --- | --- | --- | --- | --- | --- |
| 6.96 | 6.31 | 6.39 | – | C[n+]1cn(Cc2ccccc2)c2c1C(=O)c1cc3ccccc3cc1C2=O | 37.1 µM | – | – | – |
| 5.63 | 5.25 | 5.56 | – | CCC(C)n1c[n+](C)c2c1C(=O)c1cc3ccccc3cc1C2=O (stereo unspecified) | > 100 µM | – | – | – |
| 6.82 | 7.05 | 7.22 | – | Cc1n(C(C)C)c2c([n+]1C)C(=O)c1cc3ccccc3cc1C2=O | 17.9 µM | – | – | – |
| – | 6.21 | – | – | COCCn1c[n+](CCOC)c2c1C(=O)c1ccccc1C2=O | 9.9 µM | 16.2 | – | – |
| – | 7.05 | – | – | Cc1n(C)c2c([n+]1C)C(=O)c1ccccc1C2=O | 2.2 µM | 24 | – | – |
| – | 7.40 | – | – | Cn1c[n+](C)c2c1C(=O)c1cccc([N+](=O)[O-])c1C2=O | 17.5 µM | 438 | – | – |
| – | 6.04 | – | – | Cn1c2c([n+](C)c1-c1ccccc1F)C(=O)c1ccccc1C2=O | 9.2 µM | 10 | – | – |
| – | 4.49 | – | – | CC1=C(C)C(=O)c2c(n(C)c[n+]2C)C1=O | 119 µM | 3.7 | – | – |
| 6.57 | 6.04 | 6.26 | – | C[n+]1cn(Cc2cccc(F)c2)c2c1C(=O)c1cc3ccccc3cc1C2=O | 22.8 µM | – | – | – |
| 6.64 | 6.49 | 5.78 | – | Cc1n(CC2OCCO2)c2c([n+]1C)C(=O)c1cc3ccccc3cc1C2=O | 79.9 µM | – | – | – |
| 6.17 | 6.34 | 6.14 | – | Cc1n(CC#N)c2c([n+]1C)C(=O)c1cc3ccccc3cc1C2=O | 9.57 µM | – | – | – |
| 6.80 | 6.41 | 6.05 | – | Cc1n(Cc2cccc(F)c2)c2c([n+]1C)C(=O)c1cc3ccccc3cc1C2=O | 45.9 µM | – | – | – |
| 7.15 | 6.68 | 6.74 | – | COCCOCCn1c[n+](C)c2c1C(=O)c1cc3ccccc3cc1C2=O | > 100 µM | – | – | – |
| 6.28 | 6.06 | 6.11 | – | Cc1n(Cc2ccccc2)c2c([n+]1C)C(=O)c1cc3ccccc3cc1C2=O | 30.6 µM | – | – | – |
| 6.72 | 6.42 | 6.33 | – | C[n+]1cn(Cc2ccccc2F)c2c1C(=O)c1cc3ccccc3cc1C2=O | 17.7 µM | – | – | – |
| – | 4.50 | – | – | Cn1c[n+](C)c2c(O)c3c(c(O)c21)C1C=CC3C1 (stereo unspecified) | 86 µM | 2.7 | – | – |

| pIC50 [1] | pIC50 [3] | pIC50 [4] | pIC50 [6] | SMILES | IC50 at 48 h [2] | selectivity ratio [5] | pIC50 [7] | Ratio IC50 [5] |
| --- | --- | --- | --- | --- | --- | --- | --- | --- |
| 7.10 | 6.62 | 7.00 | – | CCn1c[n+](C)c2c1C(=O)c1cc3ccccc3cc1C2=O | 49.3 µM | – | – | – |
| – | 4.87 | – | – | CCn1c[n+](CC)c2c(OC)ccc(OC)c21 | 95.1 µM | 7 | – | – |
| – | – | – | 7.15 | Cn1c[n+](C)c2c1C(=O)c1ccccc1C2=O.O=S(=O)([O-])C(F)(F)F | – | – | 5.70 | 28.6 |
| – | < 4.00 | – | – | CCn1c[n+](CC)c2ccccc21 | > 200 µM | < 10 | – | – |
| 4.66 | 5.74 | 5.95 | – | CC(C)=CCn1c[n+](C)c2c1C(=O)c1cc3ccccc3cc1C2=O | 58.7 µM | – | – | – |
| – | 4.12 | – | – | O=C1c2ccccc2C(=O)c2c1n(-c1ccccc1)c[n+]2-c1ccccc1 | 66.9 µM | 0.87 | – | – |
| – | 6.07 | – | – | Cn1c2c([n+](C)c1-c1ccccc1F)C(=O)c1cc3ccccc3cc1C2=O | 10.7 µM | 13 | – | – |
| 4.23 | 6.17 | 6.23 | – | CCCCn1c[n+](C)c2c1C(=O)c1cc3ccccc3cc1C2=O | 65.1 µM | – | – | – |
| 7.05 | 6.64 | 7.15 | – | COCCn1c2c([n+](C)c1C)C(=O)c1cc3ccccc3cc1C2=O | 11 µM | – | – | – |
| – | 6.66 | – | – | CCc1n(C)c2c([n+]1C)C(=O)c1cc3ccccc3cc1C2=O | 14.6 µM | 66 | – | – |
| 7.15 | 7.22 | 6.40 | – | CC(C)=CCn1c2c([n+](C)c1C)C(=O)c1cc3ccccc3cc1C2=O | 5.52 µM | – | – | – |
| 6.60 | 6.19 | 5.87 | – | Cc1n(Cc2ccc(F)cc2)c2c([n+]1C)C(=O)c1cc3ccccc3cc1C2=O | 76.8 µM | – | – | – |
| – | 7.22 | – | – | CCn1c[n+](CC)c2c1C(=O)c1ccccc1C2=O | 5.2 µM | 86.7 | – | – |
| – | 7.05 | – | – | Cn1c2c([n+](C)c1-c1ccco1)C(=O)c1cc3ccccc3cc1C2=O | 8.9 µM | 99 | – | – |
| – | 7.10 | – | – | Cn1c2c([n+](C)c1C1CC1)C(=O)c1ccccc1C2=O | 6.2 µM | 78 | – | – |
